Measurements: PubChem BioAssay AID1259408 (Genetic Toxicology Data Bank (GENE-TOX), 2018)
The source made the active and inactive calls. No rule for the calls is given here.

Test system: GENE-TOX genotoxicity assays, various organisms and cells
Test: GENE-TOX mutagenicity studies
Conditions: for call: Assay Type: In vivo carcinogenicity studies, Assay Code: CCG+
[1] = Species/Cell Type: Mammalian polychromatic erythrocytes, Assay Type: Micronucleus test, chromosome aberrations, Assay Code: MNTT, Evaluation Type: Evaluation B (Post-1980)
[2] = Species/Cell Type: Nonhuman, Evaluation Type: Evaluation A (Pre-1980)
[3] = Species/Cell Type: Saccharomyces cerevisiae, Assay Type: Mitotic recombination or gene conversion, Assay Code: YEC+, Evaluation Type: Evaluation A (Pre-1980)
[4] = Species/Cell Type: Drosophila melanogaster, Assay Type: Sex-linked recessive lethal gene mutation, Assay Code: SRLT, Evaluation Type: Evaluation A (Pre-1980)
[5] = Species/Cell Type: Human, Assay Type: Sister-chromatid exchange (SCE) in vitro, Assay Code: SC1+D, Dose Response: With dose response, Evaluation Type: Evaluation B (Post-1980)
[6] = Species/Cell Type: Salmonella typhimurium (one or more of the five standard strains: TA98, TA100, TA1535, TA1537, and TA1538), Assay Type: Histidine reverse gene mutation, Ames assay, Assay Code: SAL+, Evaluation Type: Evaluation A (Pre-1980)

SMILES: O=P(O)(O)Oc1c(Br)cc(Br)cc1-c1cc(Br)cc(Br)c1O
- mutagenic call [1]: no conclusion

SMILES: C#C[C@]1(OC(C)=O)CC[C@H]2[C@@H]3CCC4=CC(=O)CC[C@@H]4[C@H]3CC[C@@]21C
- mutagenic call (Species/Cell Type: Rodents, Sex: Male, Assay Type: Dominant lethal test, Assay Code: DLTT, Evaluation Type: Evaluation A (Pre-1980)): no conclusion

SMILES: CCC1(CC)C(=O)NC(=O)NC1=O
- mutagenic call (Species/Cell Type: Nonhuman bone marrow, Assay Type: Chromosome aberrations, in vivo, Assay Code: CY#+, Evaluation Type: Evaluation A (Pre-1980)): active; positive
- mutagenic call (Species/Cell Type: Nonhuman, Assay Type: Sister-chromatid exchange (SCE) in vitro, Assay Code: SC2-, Evaluation Type: Evaluation A (Pre-1980)): inactive; negative

SMILES: O=C(O)CN(CC(=O)O)CC(=O)O
- mutagenic call (Species/Cell Type: Drosophila melanogaster, Assay Type: Sex-linked recessive lethal gene mutation, Assay Code: SRL-, Evaluation Type: Evaluation A (Pre-1980)): inactive; negative
- mutagenic call (Species/Cell Type: Mouse, Sex: Male, Assay Type: Heritable translocation test, chromosome aberrations, Assay Code: HTT-, Evaluation Type: Evaluation A (Pre-1980)): inactive; negative
- call [2]: active; positive
- mutagenic call (Species/Cell Type: Nonhuman, Assay Type: Sister-chromatid exchange (SCE) in vitro, Assay Code: SC2T, Evaluation Type: Evaluation B (Post-1980)): no conclusion
- mutagenic call (Species/Cell Type: Salmonella typhimurium (one or more of the five standard strains: TA98, TA100, TA1535, TA1537, and TA1538), Assay Type: Histidine reverse gene mutation, Ames assay, Assay Code: SALT, Evaluation Type: Evaluation B (Post-1980)): no conclusion
- mutagenic call (Species/Cell Type: Vicia faba, Assay Type: Chromosome aberrations, Assay Code: VIC+, Evaluation Type: Evaluation A (Pre-1980)): active; positive

SMILES: NCl
- mutagenic call [1]: no conclusion

SMILES: O=NN(CCCl)C(=O)NCCCCNC(=O)N(CCCl)N=O
- mutagenic call (Species/Cell Type: Drosophila melanogaster, Assay Type: Sex-linked recessive lethal gene mutation, Assay Code: SRL+, Evaluation Type: Evaluation A (Pre-1980)): active; positive
- mutagenic call [3]: active; positive

SMILES: CC(O)CO (stereo not given)
- mutagenic call (Species/Cell Type: Human, Assay Type: Sister-chromatid exchange (SCE) in vitro, Assay Code: SC1-, Evaluation Type: Evaluation B (Post-1980)): inactive; negative
- mutagenic call (Species/Cell Type: Syrian hamster embryo (SHE) cells, Assay Type: Cell transformation, clonal assay, Assay Code: CTC-, Evaluation Type: Evaluation A (Pre-1980)): inactive; negative

SMILES: CCN(CC)c1nc(C)cc(OP(=S)(OC)OC)n1
- mutagenic call [1]: no conclusion

SMILES: CS(=O)(=O)O
- mutagenic call [4]: no conclusion
- mutagenic call (Species/Cell Type: Escherichia coli polA (W3119 vs P3478), Assay Type: Rec-assay, DNA effects (bacterial DNA repair), Assay Code: RE1T, Evaluation Type: Evaluation A (Pre-1980)): no conclusion

SMILES: CC(=O)Nc1ccc2c(c1)Cc1ccccc1-2
- mutagenic call (Species/Cell Type: Chinese hamster lung (V79) cells, Assay Type: Forward gene mutation at the HPRT or ouabain locus, Assay Code: V79-, Evaluation Type: Evaluation A (Pre-1980)): inactive; negative
- mutagenic call (Species/Cell Type: Chinese hamster ovary (CHO) cells, Assay Type: Forward gene mutation at the HPRT locus, Assay Code: CHO+*, Activation: With metabolic activation, Evaluation Type: Evaluation B (Post-1980)): active; positive
- mutagenic call [4]: no conclusion
- mutagenic call (Species/Cell Type: Escherichia coli polA (W3110 vs P3478), Assay Type: Rec-assay, DNA effects (bacterial DNA repair), Assay Code: RE2+, Evaluation Type: Evaluation A (Pre-1980)): active; positive
- mutagenic call (Species/Cell Type: Escherichia coli polA (W3119 vs P3478), Assay Type: Rec-assay, DNA effects (bacterial DNA repair), Assay Code: RE1-, Evaluation Type: Evaluation A (Pre-1980)): inactive; negative
- mutagenic call (Species/Cell Type: Fischer rat embryo (RLV/1706) cells, Assay Type: Cell transformation, viral enhanced, Assay Code: CTRT, Evaluation Type: Evaluation A (Pre-1980)): no conclusion
- mutagenic call (Species/Cell Type: Human diploid fibroblasts, Assay Type: Unscheduled DNA synthesis (UDS) in vitro, DNA effects, Assay Code: UDHT, Evaluation Type: Evaluation A (Pre-1980)): no conclusion
- mutagenic call (Species/Cell Type: Human lymphocytes, Assay Type: Sister-chromatid exchange (SCE) in vitro, Assay Code: SCL-, Evaluation Type: Evaluation A (Pre-1980)): inactive; negative
- mutagenic call [5]: active; positive
- mutagenic call (Species/Cell Type: Human, Assay Type: Sister-chromatid exchange (SCE) in vitro, Assay Code: SC1-, Evaluation Type: Evaluation A (Pre-1980)): inactive; negative
- mutagenic call (Species/Cell Type: Mammalian polychromatic erythrocytes, Assay Type: Micronucleus test, chromosome aberrations, Assay Code: MNT+, Evaluation Type: Evaluation A (Pre-1980)): active; positive
- mutagenic call (Species/Cell Type: Mouse (BALB/c-3T3) cells, Assay Type: Cell transformation, Assay Code: CTB+D, Dose Response: With dose response, Evaluation Type: Evaluation A (Pre-1980)): active; positive
- mutagenic call (Species/Cell Type: Mouse lymphoma (L5178Y) cells, Assay Type: Forward gene mutation at the thymidine kinase (TK) locus, chromosome aberrations, Assay Code: L51+*, Activation: With metabolic activation, Evaluation Type: Evaluation A (Pre-1980)): active; positive
- mutagenic call (Species/Cell Type: Mouse, Sex: Male, Assay Type: Sperm morphology, Assay Code: SPI-, Evaluation Type: Evaluation A (Pre-1980)): inactive; negative
- call [2]: active; positive
- mutagenic call (Species/Cell Type: Nonhuman, Assay Type: Sister-chromatid exchange (SCE) in vitro, Assay Code: SC2+, Evaluation Type: Evaluation A (Pre-1980)): active; positive
- mutagenic call (Species/Cell Type: Nonhuman, Assay Type: Sister-chromatid exchange (SCE) in vivo, Assay Code: SC3+D, Dose Response: With dose response, Evaluation Type: Evaluation B (Post-1980)): active; positive
- mutagenic call (Species/Cell Type: Nonhuman, Assay Type: Sister-chromatid exchange (SCE) in vivo, Assay Code: SC3T, Evaluation Type: Evaluation A (Pre-1980)): no conclusion
- mutagenic call (Species/Cell Type: Rat primary hepatocytes, Assay Type: Unscheduled DNA synthesis (UDS) in vitro, DNA effects, Assay Code: UDP+, Evaluation Type: Evaluation A (Pre-1980)): active; positive
- mutagenic call (Species/Cell Type: Saccharomyces cerevisiae, Assay Type: Mitotic recombination or gene conversion, Assay Code: YEC-*, Activation: With metabolic activation, Evaluation Type: Evaluation A (Pre-1980)): inactive; negative
- mutagenic call (Species/Cell Type: Saccharomyces cerevisiae, Assay Type: Mitotic recombination or gene conversion, Assay Code: YEH-*, Activation: With metabolic activation, Evaluation Type: Evaluation A (Pre-1980)): inactive; negative
- mutagenic call (Species/Cell Type: Salmonella typhimurium (one or more of the five standard strains: TA98, TA100, TA1535, TA1537, and TA1538), Assay Type: Histidine reverse gene mutation, Ames assay, Assay Code: SAL+*, Activation: With metabolic activation, Evaluation Type: Evaluation A (Pre-1980)): active; positive
- mutagenic call (Species/Cell Type: Salmonella typhimurium, Assay Type: Forward and reverse gene mutation, body fluid assay, Assay Code: BFU+, Evaluation Type: Evaluation A (Pre-1980)): active; positive
- mutagenic call (Species/Cell Type: Salmonella typhimurium, Assay Type: Forward and reverse gene mutation, host-mediated assay, Assay Code: HMA+, Evaluation Type: Evaluation A (Pre-1980)): active; positive
- mutagenic call (Species/Cell Type: Syrian hamster embryo (SA7/SHE) cells, Assay Type: Cell transformation, viral enhanced, Assay Code: CT7-, Evaluation Type: Evaluation A (Pre-1980)): inactive; negative
- mutagenic call (Species/Cell Type: Syrian hamster embryo (SHE) cells, Assay Type: Cell transformation, clonal assay, Assay Code: CTC+D*, Activation: With metabolic activation, Dose Response: With dose response, Evaluation Type: Evaluation A (Pre-1980)): active; positive

SMILES: O=[N+]([O-])c1ccc(SSc2ccc([N+](=O)[O-])cc2)cc1
- mutagenic call [6]: active; positive

SMILES: N.N.[Cl-].[Cl-].[Cl-].[Cl-].[Pt+4]
- mutagenic call (Species/Cell Type: Nonhuman, Assay Type: Sister-chromatid exchange (SCE) in vitro, Assay Code: SC2+, Evaluation Type: Evaluation B (Post-1980)): active; positive

SMILES: NS(=O)(=O)c1cc2c(cc1Cl)NC=NS2(=O)=O
- mutagenic call (Species/Cell Type: Salmonella typhimurium (one or more of the five standard strains: TA98, TA100, TA1535, TA1537, and TA1538), Assay Type: Histidine reverse gene mutation, Ames assay, Assay Code: SALT, Evaluation Type: Evaluation A (Pre-1980)): no conclusion

SMILES: O=[N+]([O-])c1ccc(N2CCN(CCO)CC2)c2c1no[n+]2[O-]
- mutagenic call [6]: active; positive

SMILES: Oc1ccc(O)c(O)c1
- mutagenic call (Species/Cell Type: Allium cepa, Assay Type: Chromosome aberrations, Assay Code: ALC+, Evaluation Type: Evaluation A (Pre-1980)): active; positive

SMILES: O=Cc1ccco1
- mutagenic call (Species/Cell Type: Human lymphocytes, Assay Type: Sister-chromatid exchange (SCE) in vitro, Assay Code: SCL+D, Dose Response: With dose response, Evaluation Type: Evaluation B (Post-1980)): active; positive
- mutagenic call [5]: active; positive
- mutagenic call [6]: active; positive

SMILES: CCCN(N=O)/C(N)=N/[N+](=O)[O-]
- mutagenic call (Species/Cell Type: Arabidopsis species, Assay Type: Gene mutation, Assay Code: ARM+, Evaluation Type: Evaluation A (Pre-1980)): active; positive
- mutagenic call [6]: active; positive

SMILES: ClCC1OC(CCl)OC(CCl)O1 (stereo not given)
- mutagenic call [6]: active; positive

SMILES: O=[N+]([O-])c1ccc(-c2csc(Nc3ccccc3)n2)o1
- mutagenic call (Species/Cell Type: Escherichia coli WP2, Assay Type: Tryptophan reverse gene mutation, Assay Code: WP2+, Evaluation Type: Evaluation A (Pre-1980)): active; positive
- mutagenic call (Species/Cell Type: Escherichia coli WP2 UVRA, Assay Type: Tryptophan reverse gene mutation, Assay Code: WPU-, Evaluation Type: Evaluation A (Pre-1980)): inactive; negative

SMILES: S=C([S-])NCCNC(=S)[S-].[Zn+2]
- mutagenic call (Species/Cell Type: Human diploid fibroblasts, Assay Type: Unscheduled DNA synthesis (UDS) in vitro, DNA effects, Assay Code: UDH-, Evaluation Type: Evaluation A (Pre-1980)): inactive; negative
- mutagenic call [3]: active; positive
- mutagenic call (Species/Cell Type: Saccharomyces cerevisiae, Assay Type: Mitotic recombination or gene conversion, Assay Code: YEH-, Evaluation Type: Evaluation A (Pre-1980)): inactive; negative
